Results: US6849607B2, “Galectin recognized photosensitizers for photodynamic therapy” (Health Research, Inc., priority 2001, dated 2005)

Legend:
[1] = system: Molt-4 human leukemic T-cells; assay: In vitro photosensitizing efficacy in Molt-4 cells (MTT); assay type: cell-based; details: Molt-4 cells; for effect of free lactose on PDT efficacy of the photosensitizer: photosensitizer with lactose in a ratio of 1:100, without washing
Description: Both cell lines are known to have some expression for Galectin-1 ([…]., Baum, L. G. and Brewer, C. F., Multivalent Protein-carbohydrate Interactions. A New […] for Super Molecular Assembly and Signal Transduction, Biochemistry, 40:3009-3015, 2001). The Molt-4 cells were grown in RPMI 1640 5% FCS (Fetal calf serum) in 100% humidity with 5% CO2. Cells were transferred to phenol red free (PRF) RPMI 1640 media with 1% FCS and plated at 2.5×10^4 cells/well. After 3 hours incubation in the dark, the cells were washed once with PBS and re-suspended in prf RPMI 1640 with 1% FCS. These cells were then illuminated with a […] Quartz Halogen Lamp with IR and bandpass dichroic filters to allow light between 400 nm-700 nm, at a dose rate of 16 mW/cm^2 at 695 nm. The RIF tumor cells were grown in alpha-DMEM with 10% fetal calf serum, penicillin and streptomycin. Cells were maintained in 5% CO2, 95% air and 100% humidity. […] After overnight incubation to allow the cells to attach the photosensitizers 14 were individually added at variable concentrations. After a 3 hr incubation in the dark at 37° C., the cells were washed once with PBS, then irradiated with the same light source as above (Molt-4 procedure), and the optimal cell kill was obtained at a concentration of 1.0 μM. After PDT the cells were washed once and placed in complete media and incubated for 48 hrs. […] Louis, Mo.) was added to each well (Kessel, D., Luo, Y., Photodynamic Therapy: A Mitochondrial Inducer of Apoptosis, Cell Death Differ. 6:28-35, 1999; MacDonald, I., Morgan, […]., Litchfield, D. J. Dougherty, T. J., Subcellular Localization Patterns and their Relationship to Photodynamic Activity of Pyropheophorbide-a Derivatives, Photochem. Photobiol., 70, 789-997, 1999). After 4 hr incubation at 37° C. the MTT+media were removed and 100 μl DMSO was added to solubilize the formazin crystals. The 96-well plate was read on a microtiter plate reader (Miles Inc. Titertek Multiscan Plus MK II) at an absorbance of 560 nm. The results were plotted as percent survival of the corresponding dark (drug no light) control for each compound tested. Each data point represents the mean from 3 separate experiments, and the error bars are the standard deviation. Each experiment was done with 5 replicate wells. […] The cells were then washed once with phosphate buffer saline (PBS), carbohydrate conjugates were then added, and the cells were again incubated for an additional 3 hrs. After treating with light, the cells were re-suspended in fresh media and incubated for 48 hrs. MTT was added to the cells and incubated for an additional 4 hrs. Dimethylsulfoxide (100 μl) was then added to each well to dissolve the formazin crystals. The plates were read on a 96 well plate reader at an absorbance of 560 nm. The data are in replicates of 6 wells and are normalized to control cells (light, no drug). In another set of experiments, a similar procedure was followed, except, the cells were not washed before the light treatment. […] Louis, Mo.) was added to the cells and incubated for an additional 4 hrs. Dimethylsulfoxide (100 μl) was then added to each well to dissolve the formazin crystals. The plates were read on a 96 well plate reader (Miles Inc. Titertek Multiscan Plus MK II) at an absorbance of 560 nm. The data are in replicates of 6 wells and are normalized to control cells (light, no drug).

RIF tumors = assay: In vivo photosensitizing efficacy (tumor re-growth assay) in mice bearing RIF tumors; set-up: species or system C3H/HEJ mice; details: 5.0 μM/kg; for mice tumor free on day 90: light 24 h post-injection, 6 mice/group; for mice tumor free on day 90 / in vivo PDT efficacy (in words): no free lactose
Description: Both conjugated and non-conjugated photosensitizers (1-4) were evaluated for their in vivo tumor response in C3H mice implanted with RIF tumors. In brief, C3H/HEJ mice were injected intradermally with 2×10^5 RIF cells in 30 μl HBSS w/o Ca^+2 and magnesium, into the flank and allowed to grow until they were 4-5 mm in diameter. The day before tumors were treatment size, the mice were injected with 0-5 μlmoles/kg of compounds 1-4. At 24 hours post-injection the mice were anesthetized with Ketamine and Xylazine, and restrained on plastic holders, treated with laser light from an argon pumped dye laser at 700 nm for a total fluence of 135 J/cm^2 at a fluence rate of 75 mW/cm^2. The mice (6 mice/group) were checked daily, the tumors were measured using two orthogonal measurements L and W (perpendicular to L) and the volumes were calculated using the formula V=LxW ^2/2 and recorded. Mice were considered cured if there was no palpable tumor at 90 days post PDT treatment.

RIF tumor cells = assay: Cellular localization in RIF tumor cells with DPH counterstain; assay type: cell-based; details: RIF cells (FIGS. 9a and 9b)
Description: For investigating the difference in sites of localization between the photosensitizers with and without carbohydrate moieties, the fluorescence light microscopy experiments were performed in Molt-4 and RIF tumor cell lines. In a typical experiment, cells were imaged at 100× on an inverted fluorescence microscope (Carl Zeiss Inc. Axiovert 35.W.Germany) with a charged-coupled device camera (Dage-MTI, model 104722-02). Images were captured and processed by computer using Image-1 image processing software (Universal Imaging Corp., version 4.0, WestChester, Pa.). The photosensitizer fluorescence was assessed by using 530-585 nm excitation and 615 nm long-pass filter to measure emission while 338-378 nm excitation for DPH, and a 450 nm emission filter for emission (400 nm dichroic). […] In addition, […]1-(4-trimethylammonium)-6-phenyl-1,3,5-hexatriene (TMA-DPH), a hydrophobic fluorescent probe which interacts with living cells by instantaneous incorporation into plasma membrane and becomes fluorescent (Illinger, D., and Kuhry, J. G., The Kinetic Aspects of Intracellular Fluorescence Labeling with TMA-DPH Support the Maturation Model for Endocytosis in L929 Cells, The Journal of Cell Biology, 125:783-794, 1994), was added for the last 5 min of the incubation, cells were washed once with PBS and transferred to a microscope slide for imaging. […]

## C=C(C=CCO[C@@H]1O[C@H](CO)[C@@H](O[C@@H]2O[C@H](CO)[C@H](O)[C@H](O)[C@H]2O)[C@H](O)[C@H]1O)CN1C(=O)c2c3nc(cc4[nH]c(cc5nc(cc6[nH]c2c(c6C)C1=O)C(CC)=C5C)c(CC)c4C)C(C)C3CCC(=O)OC (mixture of isomers) [4a, Lactose-Chlorin conjugate joined with diene linkage]
[1]; 2.0 μM, 2a, 3a compared to 1a, 4a compared to 2a and 3a
  in vitro photosensitizing efficacy (in words): better pbotosensitizer
[1]
  effect of free lactose on PDT efficacy of the photosensitizer: complete inhibition in PDT efficacy
RIF tumors; free lactose 100-fold excess
  in vivo PDT efficacy, lactose injected immediately following the drug: significant decrease in PDT efficacy
RIF tumors; lactose 23 hr post-injection of the conjugate
  in vivo PDT efficacy, lactose injected 1 hour prior to light treatment: quite effective
RIF tumors
  mice tumor free on day 90: 3/6
  in vivo PDT efficacy (in words): quite effective
RIF tumors; listed as 4
  mice tumor free on day 90: Three out of six
RIF tumor cells
  cellular localization with DPH as a counterstain: intense plasma membrane fluorescence

## Mesopurpurin-18-N-methyl-(2′-butadiene)imide [1a]
[1]
  effect of free lactose on PDT efficacy of the photosensitizer: did not produce any change in photocytotoxic ability
RIF tumors
  in vivo PDT efficacy with and without lactose administration: ineffective
  in vivo PDT efficacy (in words): inactive in vivo
RIF tumor cells
  cellular localization with DPH as a counterstain: diffuse intracellular localization
